Molecules are shown by their SMILES. Activity calls are given as the source filed them.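 The calls were made as follows: active = compounds giving half or more protection of infected cells from virus-caused growth loss, again on retest; inactive = the rest.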 Where a SMILES comes first, the peptide text is derived from it. The star is where a group is joined. Cbz = O=C(OCc1ccccc1)*; Boc = CC(C)(C)OC(=O)*; OBn = c1ccc(CO*)cc1

In this assay the test system is CEM cells HIV-1 protection, formazan growth assay. The assay is described as follows: NCI AIDS Antiviral Assay. As to conditions: for IC50: measured here: growth of uninfected CEM cells. In a few lines: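 Protection of CEM cells against HIV-1 was scored from cell growth (soluble formazan) across five concentrations, with parallel uninfected cells. Lack of protection may reflect toxicity.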

In the case of `CC(C#N)(NO)C(C)(C#N)NO` (stereo not drawn), the EC50 was above 200 µM and the IC50 was above 200 µM.

Consider `CC(=O)N(CN1C(=O)CCC1C(=O)O)c1ccccc1` (stereo not drawn), for which the result was inactive.

Take `CC1(C)CC(=O)C(CC2C(=O)CC(C)(C)CC2=O)C(=O)C1`: the EC50 is above 200 µM and the IC50 is above 200 µM.

As for `COc1ccc(/C=N/Nc2nc(-c3cc4oc(=O)n(C)c4cc3Cl)cs2)cc1OC`, the EC50 is above 11.7 µM and the IC50 is above 11.7 µM.

For `COc1cc([C@@H]2C3C(=O)c4ccccc4C3[C@@H](c3cc(OC)c(OC)c(OC)c3)C23Cc2ccccc2C3=O)cc(OC)c1OC` (stereo partly drawn), the EC50 was above 200 µM and the IC50 came to 31.6 µM.

Turning to `COc1cc2cc(c1Cl)N(C)C(=O)C[C@H](OC(=O)[C@H](C)N(C)C(C)=O)[C@]1(C)O[C@H]1[C@H](C)[C@@H]1C[C@@](O)(NC(=O)O1)[C@H](OC)C=C/C=C(\C)C2`, the result was inactive.

Consider `CCOc1ccc(N(CC(=O)N2CC(=O)Nc3cc(C)c(C)cc32)C(C)=O)cc1`, for which the EC50 was above 13.2 µM and the IC50 is above 13.2 µM.

With `CCCC(=O)NC(Nc1ccc(F)cc1)(C(F)(F)F)C(F)(F)F`, the outcome was inactive.

With `CC(=O)Oc1ccc(C[C@H]2COC(=O)[C@@H]2Cc2ccc(OC(C)=O)c(OC(C)=O)c2)cc1OC(C)=O`, the EC50 is above 200 µM and the IC50 worked out at 17.4 µM.

With `CC(C)N(C(=O)C12C3(C(=O)OC(C)(C)C)C4C5(C#N)C3C1(C(=O)OC(C)(C)C)C5C42C(=O)OC(C)(C)C)C(C)C` (stereo not drawn), the EC50 is above 200 µM and the IC50 was 23.4 µM.

Take `COc1ccc(NC(=O)c2cc3cc(N=Nc4ccc(Br)cc4)ccc3oc2=O)cc1`: the result was inactive.

`CC(=O)OCC1OC(Sc2nc(-c3ccccc3)c(C#N)c(=O)n2C2OC(COC(C)=O)C(OC(C)=O)C(OC(C)=O)C2OC(C)=O)C(OC(C)=O)C(OC(C)=O)C1OC(C)=O` (stereo not drawn): the EC50 was above 151 µM and the IC50 turned out to be 19.5 µM.

Turning to `CCCCC(CC)C(=O)OC(C)CN(CC(C)OC(=O)C(CC)CCCC)C(=O)C(C)OC(=O)C(CC)CCCC` (stereo not drawn), the outcome was inactive.

As for `CSc1ccc(NC(=O)C2c3[nH]c4ccccc4c3C3CCC(C(C)(C)C)CC3C2C(=O)O)cc1` (stereo not drawn), the EC50 is above 7.76 µM and the IC50 was above 7.76 µM.

Regarding `COc1ccc2c(c1)C=C(C(C)(C)C)NS2(=O)=O`, the EC50 is above 97.7 µM and the IC50 is above 97.7 µM.

`CC#CCC(OC(C)=O)c1ccccc1` (stereo not drawn): the result was inactive.

As for `CN1CCN(C)C12C=CC=CC21CC1`, the outcome was inactive.

Regarding `COc1ccc2c(c1)c1c3n2CCNN=C3CCC1`, the EC50 is above 74.1 µM and the IC50 was above 74.1 µM.

With `COc1ccc(/C=C2\N=C(SC)NC2=O)cc1`, the EC50 was above 200 µM and the IC50 was found to be 107 µM.

As to `CCOC(=O)/C(=C/c1cn(C(C)=O)c2ccccc12)P(=O)(OC)OC`, the EC50 was above 200 µM and the IC50 amounted to 72.4 µM.

As for `CC(C)CC(NC(=O)C(Cc1ccccc1)NC(=O)C(Cc1ccccc1)NC(=O)OC(C)(C)C)C(=O)OCc1ccccc1` (stereo not drawn) (Boc-Phe-Phe-Leu-OBn; configuration not given here), the EC50 was above 200 µM and the IC50 is above 200 µM.

In the case of `O=C(O)c1ccc(C2=Cc3cc(Cl)ccc3OC2)cc1`, the EC50 is above 66.1 µM and the IC50 was above 66.1 µM.

As for `COc1ccc2c(=O)c(S)coc2c1`, the EC50 is above 200 µM and the IC50 worked out at 30.2 µM.

As to `O=C(NNC(=S)S)c1ccncc1`, the EC50 is above 200 µM and the IC50 turned out to be 95.5 µM.

`CCOC(=O)/C=C/SC(C)(C)C(N)C(=O)O` (stereo not drawn): the EC50 is above 1000 µM and the IC50 was above 1000 µM.

As for `CCCCc1c2c(nc3c1CCCC3O)CCCC2` (stereo not drawn), the EC50 was above 200 µM and the IC50 was 81.3 µM.

With `[N-]=[N+]=Nc1ccc(CCN2CCN(c3cccc(C(F)(F)F)c3)CC2)cc1I`, the outcome was inactive.

For the molecule `COC(=O)C=C(c1cc(Cl)c(OC)c(C(=O)OC)c1)c1cc(Cl)c(OC)c(C(=O)OC)c1`, the EC50 was above 200 µM and the IC50 is 17.8 µM.

Regarding `Cc1ccc(NNc2cc(=O)[nH]c(=O)[nH]2)cc1Cl`, the EC50 was above 200 µM and the IC50 worked out at 4.68 µM.

For `O=C(NNC(=S)Nc1ccccc1)C12CC3CC(CC(C3)C1)C2`, the EC50 was above 200 µM and the IC50 amounted to 34.7 µM.

With `O=[N+]([O-])c1cc(F)ccc1Sc1ccccc1`, the EC50 was above 200 µM and the IC50 amounted to 95.5 µM.

Turning to `CC(C)C1NC(=O)c2ccccc2S1` (stereo not drawn), the EC50 is above 871 µM and the 50% inhibitory concentration (IC50) is 195 µM.

Consider `CC1(C)C(O)CC[C@@]2(C)C1CC[C@]1(C)C2CC=C2[C@@H]3C[C@](C)(C(=O)O)CC[C@]3(C)CCC21C` (stereo partly drawn), for which the EC50 was above 200 µM and the IC50 is 27.5 µM.

Regarding `Cc1cc(C)c(P2C(=C(O[Si](C(C)C)(C(C)C)C(C)C)C(C)(C)C)C2(c2ccccc2)c2ccccc2)c(C)c1` (stereo not drawn), the EC50 is above 100 µM and the IC50 was above 100 µM.

For the molecule `CC#N.CC#N.COC(=O)[C@@H]1CN(C(=O)CCc2ccccc2)C(=O)[N-]1.COC(=O)[C@@H]1CN(C(=O)CCc2ccccc2)C(=O)[N-]1.COC(=O)[C@@H]1CN(C(=O)CCc2ccccc2)C(=O)[N-]1.COC(=O)[C@@H]1CN(C(=O)CCc2ccccc2)C(=O)[N-]1.[Rh+2].[Rh+2]`, the EC50 was above 200 µM and the IC50 was 4.37 µM.

Regarding `CC1=CC2=C(C#N)C(=O)OC2(C)C(c2ccccc2)C1` (stereo not drawn), the EC50 is above 200 µM and the IC50 amounted to 117 µM.

Consider `C[N+](C)(C)CC(=O)N/N=C(/Cc1nc2ccc([N+](=O)[O-])cc2[nH]c1=O)C(=O)Nc1cc(C(F)(F)F)ccc1Cl`, for which the EC50 is above 295 µM and the 50% inhibitory concentration (IC50) came out at 120 µM.

Take `COC1NC(=O)Oc2c(F)cccc21` (stereo not drawn): the result was inactive.

For `COC(=O)CCN(CCC(=O)OC)C1CC1`, the EC50 was above 200 µM and the IC50 is above 200 µM.

With `O=C(O)CCC(NC(=O)/C(=C/c1ccccc1)NC(=O)c1ccccc1)C(=O)O` (stereo not drawn), the EC50 is above 200 µM and the IC50 was above 200 µM.

Regarding `O=C1C2C3C=C4c5ccccc5N(c5ccccc5)C4(C2C(=O)N1c1ccc(Cl)cc1)[C@H]1C(=O)N(c2ccc(Cl)cc2)C(=O)[C@@H]31` (stereo partly drawn), the EC50 is above 3.16 µM and the IC50 is above 3.16 µM.

For the molecule `CC(C)c1cccc(C(C)C)c1NC(=O)C(=O)CC(=O)CC(c1ccccc1)c1c(O)c2ccccc2oc1=O` (stereo not drawn), the EC50 was above 468 µM and the IC50 was determined as 229 µM.

Regarding `C=CCCCCCCCCC(=O)NCc1ccncc1`, the EC50 was above 200 µM and the IC50 was 97.7 µM.

As for `NCCN.[O-][Cl+3]([O-])([O-])[O-].[Pd+2].c1ccc(-c2ccccn2)nc1`, the EC50 is above 200 µM and the IC50 was 30.2 µM.

`CC1=NN(C(=O)CC(=O)NC(=O)CC(=O)Nc2ccccc2F)C(=O)C1N=Nc1ccc([N+](=O)[O-])cc1` (stereo not drawn): the EC50 is above 70.8 µM and the IC50 stood at 44.7 µM.

Consider `O=C(O)CC(NC(=O)OCc1ccccc1)C(=O)O` (stereo not drawn), for which the EC50 is above 200 µM and the IC50 is above 200 µM.

Take `CC1(C)C(C#N)=[N+]([O-])C(C)(C)N1O`: the EC50 was above 200 µM and the IC50 amounted to 123 µM.

Turning to `CC1=C2C3=C(C)C(=O)C(C)(C)CC[C@@]3(C)[C@]2(C)CCC(C)(C)C1=O`, the EC50 was above 75.9 µM and the IC50 was above 75.9 µM.

In the case of `N#CC1=C2Oc3ccccc3N2C(c2ccc(Cl)cc2)C(C#N)=C1N` (stereo not drawn), the EC50 is above 200 µM and the IC50 was found to be 36.3 µM.

Consider `CN(C)c1cccc2c(S(=O)(=O)NCCN)cccc12`, for which the EC50 is above 200 µM and the IC50 was 174 µM.

With `Clc1ccc(OCc2nc3ccccc3[nH]2)cc1`, the EC50 is above 200 µM and the IC50 is 162 µM.

For `CCOC(=O)CCC(NC(=O)C(CC(=O)OC)NC(=O)C(CC(=O)OC)NC(=O)C(CC(=O)OC)NC(=O)C(CC(=O)OC)NC(=O)OCc1ccccc1)C(=O)NC(CCC(=O)OCC)C(=O)NC(CCC(=O)OCC)C(=O)OCC` (stereo not drawn) (Cbz-D(OMe)D(OMe)D(OMe)D(OMe)E(OEt)E(OEt)E(OEt)-OEt; configuration not given here), the EC50 is above 50.1 µM and the concentration for half-maximal inhibition (IC50) is above 50.1 µM.

For the molecule `CC1=Nc2ccccc2S/C1=C1/C=NC(=NC#N)N=C1C(=O)Nc1cccc(Cl)c1`, the EC50 is above 83.2 µM and the IC50 was above 83.2 µM.

As for `COC(=O)CCC(=O)c1ccc2c(c1)CC1(C2)Cc2ccc3c(c2C1)CCCC3=O` (stereo not drawn), the EC50 was above 200 µM and the concentration for half-maximal inhibition (IC50) came out at 8.51 µM.

As for `Cc1cc2[nH]c3[nH]c(=O)[nH]c(=O)c3c2cc1C`, the EC50 is above 200 µM and the IC50 is 170 µM.

As for `COc1cc2c(cc1O)C1COc3cc4c(cc3C1O2)CCC(C)(C)O4` (stereo not drawn), the EC50 was above 200 µM and the IC50 stood at 11.5 µM.

As to `Cc1c2c(oc(=O)c1NC(=O)c1ccccc1)CCCCCC2`, the EC50 is above 200 µM and the IC50 was above 200 µM.

Regarding `Nc1ccccc1S(=O)(=O)N(CC(=O)O)c1ccccc1`, the outcome was inactive.

As to `O=c1[nH]n(Cc2ccccn2)c2ccc([N+](=O)[O-])cc12`, the EC50 was above 200 µM and the concentration for half-maximal inhibition (IC50) was above 200 µM.

As to `S=C1Cc2cc3ccccc3nc2-c2ccccc2N1`, the EC50 is above 100 µM and the IC50 was above 100 µM.

For `NC(=O)ON=C1CCN(Cc2ccccc2)CC1`, the EC50 is above 200 µM and the IC50 was above 200 µM.

Regarding `CN(C)Cc1cc(N=Nc2ccc(Cl)cc2)cc(CN(C)C)c1O`, the EC50 is above 20 µM and the IC50 came out at 8.71 µM.

For `Cc1nc(Nc2ccc(Cl)cc2)sc1C(=O)Nc1cccc2c(=O)[nH][nH]c(=O)c12`, the EC50 was above 17 µM and the IC50 was above 17 µM.

Regarding `N#Cc1ccc(C=C2C(=O)c3ccccc3C2=O)cc1`, the EC50 was above 72.4 µM and the IC50 turned out to be 46.8 µM.

`c1csc(-c2cc(-c3ccsc3)c(-c3cccs3)s2)c1`: the EC50 was above 200 µM and the IC50 was 107 µM.

Consider `[C-]#[N+][C@@H]1C2C([C@@]3(C)CCC(C(C)(C)[N+]#[C-])O3)CC[C@](C)([N+]#[C-])[C@H]2CC[C@@]1(C)O` (stereo partly drawn), for which the outcome was inactive.

For `COc1c(OC)c(OC)c2c(c1OC)OC(c1ccc(O)cc1)CC2=O` (stereo not drawn), the EC50 was above 200 µM and the IC50 amounted to 28.8 µM.

In general, EC50 refers to the midpoint of the concentration-response curve. A word on the IC50: it is the concentration at which inhibition is half-maximal. A high value points to a need for much substance.

The values are drawn from PubChem BioAssay AID179 (DTP/NCI, 2004).
